“And” between values parts separate entries of the source, which are not always exact repeats. Equal entries are not always repeated. The source made the active and inactive calls.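 How the source made its calls: active means mean IC50 of at most 10 µM; inactive means the rest.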
System: H9c2 cardiomyoblasts, H2O2 injury protection, ATPLite luminescence, 2 h
Test: protection of cardiomyoblasts from H2O2 death, SAR follow-up, H9c2 cells, set 2 (AID 624458)

**Q.** With `COc1cc(-c2cc(C(=O)Nc3cccc(F)c3)c3ccccc3n2)cc(OC)c1OC` as the compound, how does the IC50 read?
**A.** The IC50 was 10.6 µM (inactive).

**Q.** `COc1cc(-c2cc(C(=O)Nc3cccc(C(C)=O)c3)c3cc(Cl)ccc3n2)cc(OC)c1OC` was tested. Which IC50 did it give?
**A.** Its IC50 is 6.13 µM.

**Q.** Which IC50 does the source give for `COc1cccc(NC(=O)c2cc(-c3cc(OC)c(OC)c(OC)c3)nc3ccccc23)c1` here?
**A.** Its IC50 is 8.18 µM.

**Q.** With `COc1ccc2c(c1OC)C(=O)N1c3ccccc3C(=O)N(c3cccc(C(F)(F)F)c3)C21` (centres undefined) as the compound, how does the IC50 read?
**A.** The IC50 was 13.8 µM (inactive).

**Q.** How did the IC50 turn out when `COc1cc(-c2cc(C(=O)Nc3cccc(C(F)(F)F)c3)c3ccccc3n2)cc(OC)c1OC` was run?
**A.** Its IC50 is 75.3 µM (inactive).

**Q.** How did the IC50 turn out when `COc1cc(-c2cc(C(=O)Nc3cccc(C)c3)c3ccccc3n2)cc(OC)c1OC` was run?
**A.** The IC50 was 18.8 µM (inactive).

**Q.** For `COc1ccc(N2C(=O)c3ccccc3N3C(=O)c4c(ccc(OC)c4OC)C23)cc1` (centres undefined), which IC50 is on record?
**A.** The IC50 was 12.8 µM (inactive).

**Q.** With `CCN(CC(=O)Nc1ccc(OC)cc1)C(=O)c1cc(-c2cc(OC)c(OC)c(OC)c2)nc2ccccc12` as the compound, how does the IC50 read?
**A.** Its IC50 is 3.89 µM.

**Q.** Which IC50 does the source give for `COc1ccc2c(c1OC)C(=O)N1c3ccccc3C(=O)N(c3ccccc3)C21` (centres undefined) here?
**A.** Its IC50 is 11 µM (inactive).

**Q.** How did the IC50 turn out when `COc1cccc(-c2cc(C(=O)Nc3cccc(C(C)=O)c3)c3ccccc3n2)c1` was run?
**A.** Its IC50 is 6.74 µM.

**Q.** With `COc1ccc2c(c1OC)C(=O)N1c3ccccc3C(=O)N(Cc3ccccc3Cl)C21` (centres undefined) as the compound, how does the IC50 read?
**A.** The IC50 was 1.2 µM.

**Q.** How did the IC50 turn out when `COc1cc(-c2cc(C(=O)Nc3cccc(Cl)c3)c3ccccc3n2)cc(OC)c1OC` was run?
**A.** The IC50 was 58.4 µM (inactive).

**Q.** Which IC50 does the source give for `COc1ccc(-c2cc(C(=O)Nc3cccc(C(C)=O)c3)c3ccccc3n2)cc1` here?
**A.** Its IC50 is 5.6 µM.

**Q.** Which IC50 does the source give for `COc1cccc(N2C(=O)c3ccccc3N3C(=O)c4ccccc4C23)c1` (centres undefined) here?
**A.** Its IC50 is 40.5 µM (inactive).

**Q.** For `COc1cc(-c2cc(C(=O)Nc3cccc(C(C)=O)c3)c3ccccc3n2)cc(OC)c1OC`, which IC50 is on record?
**A.** The IC50 was 1.41 µM and 4.26 µM.

**Q.** Which IC50 does the source give for `COc1ccc2c(c1OC)C(=O)N1c3ccccc3C(=O)N(c3cccc(F)c3)C21` (centres undefined) here?
**A.** The IC50 was 6.91 µM.

**Q.** With `CCOC(=O)c1cccc(NC(=O)c2cc(-c3cc(OC)c(OC)c(OC)c3)nc3ccccc23)c1` as the compound, how does the IC50 read?
**A.** The IC50 was 3.06 µM.

**Q.** With `COc1ccc(NC(=O)c2cc(-c3cc(OC)c(OC)c(OC)c3)nc3ccccc23)cc1` as the compound, how does the IC50 read?
**A.** The IC50 was 7.41 µM.

**Q.** Which IC50 does the source give for `CC(=O)c1cccc(NC(=O)c2cc(-c3ccccc3)nc3ccccc23)c1` here?
**A.** The IC50 was 7.04 µM.

**Q.** `COc1ccc2c(c1OC)C(=O)N1c3ccccc3C(=O)N(Cc3cccc(Cl)c3)C21` (centres undefined) was tested. Which IC50 did it give?
**A.** The IC50 was 2.96 µM.

**Q.** With `COc1ccc2c(c1OC)C(=O)N1c3ccccc3C(=O)N(c3ccc(Br)cc3)C21` (centres undefined) as the compound, how does the IC50 read?
**A.** The IC50 was 1.97 µM.

**Q.** For `COc1ccc2c(c1OC)C(=O)N1c3ccccc3C(=O)N(c3ccc(C(C)(C)C)cc3)C21` (centres undefined), which IC50 is on record?
**A.** The IC50 was 5.55 µM.

**Q.** How did the IC50 turn out when `COc1cccc(N2C(=O)c3ccccc3N3C(=O)c4c(ccc(OC)c4OC)C23)c1` (centres undefined) was run?
**A.** The IC50 was 6.89 µM.

**Q.** Which IC50 does the source give for `COc1ccc2c(c1OC)C(=O)N1c3ccccc3C(=O)N(c3ccc(C)cc3)C21` (centres undefined) here?
**A.** The IC50 was 0.959 µM.

**Q.** `COc1ccc(-c2cc(C(=O)Nc3cccc(C(C)=O)c3)c3ccccc3n2)cc1OC` was tested. Which IC50 did it give?
**A.** Its IC50 is 8.37 µM.

**Q.** `COc1cccc(CNC(=O)c2cc(-c3ccc(OC)c(OC)c3)nc3ccccc23)c1` was tested. Which IC50 did it give?
**A.** Its IC50 is 5.82 µM.

**Q.** How did the IC50 turn out when `COc1ccc2c(c1OC)C(=O)N1c3ccccc3C(=O)N(c3cccc(C)c3)C21` (centres undefined) was run?
**A.** Its IC50 is 17.8 µM (inactive).

**Q.** Which IC50 does the source give for `COc1ccc2c(c1OC)C(=O)N1c3ccccc3C(=O)N(c3cccc(Br)c3)C21` (centres undefined) here?
**A.** The IC50 was 1.75 µM and 12.5 µM (inactive).

**Q.** For `COc1cccc(CNC(=O)c2cc(-c3cc(OC)c(OC)c(OC)c3)nc3ccccc23)c1`, which IC50 is on record?
**A.** The IC50 was 4.8 µM.

**Q.** Which IC50 does the source give for `COc1cc(-c2cc(C(=O)Nc3ccc(C(C)=O)cc3)c3ccccc3n2)cc(OC)c1OC` here?
**A.** The IC50 was 3.53 µM.

**Q.** With `O=C1c2ccccc2N2C(=O)c3ccccc3C2N1c1ccccc1` (centres undefined) as the compound, how does the IC50 read?
**A.** The IC50 was 61.1 µM (inactive).

**Q.** With `O=C1c2ccccc2N2C(=O)c3ccccc3C2N1c1cccc(Br)c1` (centres undefined) as the compound, how does the IC50 read?
**A.** The IC50 was > 79 µM (inactive).

**Q.** `COc1ccc2c(c1OC)C(=O)N1c3ccccc3C(=O)N(c3cccc(Cl)c3)C21` (centres undefined) was tested. Which IC50 did it give?
**A.** The IC50 was 12.1 µM (inactive).

**Q.** `COc1cc(-c2cc(C(=O)Nc3ccccc3)c3ccccc3n2)cc(OC)c1OC` was tested. Which IC50 did it give?
**A.** Its IC50 is 10.1 µM (inactive).
